The supplement of paper PMC10307832

What was measured:
Assay in all cases: relative viability (nuclei count vs DMSO), 5 days (fraction); higher = more cells survive
Sulindac + Dasatinib = compound: CC1=C(CC(=O)O)c2cc(F)ccc2/C1=C\c1ccc([S+](C)[O-])cc1 [Sulindac] + Cc1nc(Nc2ncc(C(=O)Nc3c(C)cccc3Cl)s2)cc(N2CCN(CCO)CC2)n1 [Dasatinib] (partner 0.075 µM)
Outline: (§1)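 Medians of duplicate plates are given as relative viability. That measure is the nuclei count in treated wells divided by the count in vehicle wells. Counts were taken on 4× images of lung cancer cell lines in 1536-well plates, 5 days after pin-tool dosing the day after seeding with one drug alone or a fixed anchor-drug dose plus five library-drug doses (not always all listed) in √10 steps.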

[1] = compound: CN[C@@H]1C[C@H]2O[C@@](C)([C@@H]1OC)n1c3ccccc3c3c4c(c5c6ccccc6n2c5c31)C(=O)NC4 [Staurosporine] + CC(=O)c1c(C)c2cnc(Nc3ccc(N4CCNCC4)cn3)nc2n(C2CCCC2)c1=O [Palbociclib] (partner 0.5 µM)
Outline: as §1

[2] = compound: CN[C@@H]1C[C@H]2O[C@@](C)([C@@H]1OC)n1c3ccccc3c3c4c(c5c6ccccc6n2c5c31)C(=O)NC4 [Staurosporine] + CC1(C)CCC(c2ccc(Cl)cc2)=C(CN2CCN(c3ccc(C(=O)NS(=O)(=O)c4ccc(N[C@H](CCN5CCOCC5)CSc5ccccc5)c(S(=O)(=O)C(F)(F)F)c4)cc3)CC2)C1 [Navitoclax] (partner 0.5 µM)
Outline: as §1

[3] = compound: CN[C@@H]1C[C@H]2O[C@@](C)([C@@H]1OC)n1c3ccccc3c3c4c(c5c6ccccc6n2c5c31)C(=O)NC4 [Staurosporine] + Nc1nc2[nH]cc(CCc3ccc(C(=O)N[C@@H](CCC(=O)O)C(=O)O)cc3)c2c(=O)[nH]1 [Pemetrexed] (partner 0.2 µM)
Outline: as §1

| Cell Line | relative viability (Sulindac + Dasatinib; first compound 0.08 µM) | relative viability (Sulindac + Dasatinib; first compound 0.253 µM) | relative viability (Sulindac + Dasatinib; first compound 0.8 µM) | relative viability (Sulindac + Dasatinib; first compound 2.53 µM) | relative viability (Sulindac + Dasatinib; first compound 8 µM) | relative viability ([1]; first compound 0.005 µM) | relative viability ([1]; first compound 0.01581 µM) | relative viability ([1]; first compound 0.05 µM) | relative viability ([1]; first compound 0.1581 µM) | relative viability ([1]; first compound 0.5 µM) | relative viability ([2]; first compound 0.005 µM) | relative viability ([2]; first compound 0.01581 µM) | relative viability ([2]; first compound 0.05 µM) | relative viability ([2]; first compound 0.1581 µM) | relative viability ([2]; first compound 0.5 µM) | relative viability ([3]; first compound 0.005 µM) | relative viability ([3]; first compound 0.01581 µM) | relative viability ([3]; first compound 0.05 µM) | relative viability ([3]; first compound 0.1581 µM) | relative viability ([3]; first compound 0.5 µM) |
| --- | --- | --- | --- | --- | --- | --- | --- | --- | --- | --- | --- | --- | --- | --- | --- | --- | --- | --- | --- | --- |
| LU99A | 0.596 | 0.533 | 0.509 | 0.522 | 0.714 | 0.366 | 0.196 | 0.196 | 0.211 | 0.174 | 0.876 | 0.589 | 0.359 | 0.211 | 0.128 | 0.178 | 0.168 | 0.16 | 0.114 | 0.119 |
| LXF-289 | 0.24 | 0.223 | 0.227 | 0.25 | 0.225 | 0.717 | 0.21 | 0.16 | 0.141 | 0.117 | 0.944 |  | 0.263 | 0.0806 | 0.14 | 0.812 | 0.182 | 0.307 | 0.0978 | 0.159 |
| NCI-H23 | 0.856 |  | 0.801 | 0.755 | 0.78 | 0.255 | 0.253 | 0.162 | 0.147 | 0.131 | 0.764 | 0.412 | 0.257 | 0.2 | 0.12 | 0.459 | 0.143 | 0.216 | 0.163 | 0.113 |
| NCI-H322M | 0.26 | 0.244 | 0.268 | 0.244 | 0.275 | 0.476 | 0.386 | 0.388 | 0.433 | 0.467 | 1.36 | 1.15 | 0.771 | 0.586 | 0.462 | 0.608 | 0.501 | 0.451 | 0.423 | 0.388 |
| NCI-H441 | 0.592 | 0.643 | 0.406 | 0.647 | 0.83 | 0.161 | 0.12 | 0.118 | 0.114 | 0.112 | 0.521 | 0.333 | 0.325 | 0.16 | 0.17 | 0.246 | 0.203 | 0.177 | 0.157 | 0.147 |
| NCI-H460 | 0.616 | 0.461 | 0.482 | 0.489 | 0.658 | 0.0657 | 0.0441 | 0.0429 | 0.0284 | 0.0184 | 0.949 | 0.87 | 0.232 | 0.0102 | 0.0078 | 0.065 | 0.0547 | 0.0426 | 0.0415 | 0.0101 |
| NCI-H520 | 0.241 | 0.201 |  | 0.204 | 0.226 | 0.272 | 0.262 | 0.159 | 0.116 | 0.12 | 1.15 | 0.935 | 0.408 | 0.204 | 0.13 | 0.579 | 0.394 | 0.295 | 0.181 | 0.148 |
| NCI-H647 | 0.257 | 0.201 | 0.126 | 0.194 | 0.247 | 0.239 |  | 0.0896 | 0.0475 | 0.0477 | 0.728 | 0.142 | 0.291 | 0.0554 | 0.0386 | 0.118 | 0.0997 | 0.104 | 0.0736 | 0.0566 |
| NCI-H838 | 0.275 | 0.334 | 0.311 | 0.281 | 0.34 | 0.151 | 0.138 | 0.151 | 0.121 | 0.0855 | 0.307 | 0.22 | 0.203 | 0.161 | 0.113 | 0.205 | 0.148 | 0.144 | 0.111 | 0.112 |
| NCI-H1355 | 0.872 | 0.756 |  | 0.643 | 0.795 | 0.411 | 0.3 | 0.214 | 0.188 | 0.161 | 0.975 | 0.549 | 0.249 | 0.28 | 0.217 | 0.999 | 0.609 | 0.449 | 0.27 | 0.2 |
| NCI-H1395 | 0.379 | 0.406 | 0.613 | 0.368 | 0.485 | 0.53 | 0.438 | 0.406 | 0.393 | 0.306 | 1.05 | 0.495 | 0.458 | 0.327 | 0.301 | 0.789 | 0.341 | 0.316 | 0.31 | 0.255 |
| NCI-H1437 | 0.405 | 0.462 | 0.293 | 0.399 | 0.444 | 0.27 | 0.182 | 0.168 | 0.116 |  | 0.982 | 0.865 | 0.695 | 0.189 | 0.101 | 0.268 | 0.214 | 0.182 | 0.17 | 0.131 |
| NCI-H1650 | 0.304 | 0.353 |  | 0.321 | 0.341 | 0.238 | 0.138 | 0.147 | 0.118 | 0.0769 | 0.63 | 0.493 | 0.29 | 0.192 | 0.116 | 0.325 | 0.239 | 0.209 | 0.23 | 0.104 |
| NCI-H1651 | 0.475 | 0.539 |  | 0.419 | 0.777 | 0.497 | 0.471 | 0.318 | 0.313 | 0.249 | 0.897 | 0.559 | 0.305 | 0.112 | 0.0765 | 0.613 | 0.426 | 0.274 | 0.156 | 0.159 |
| NCI-H1666 | 0.945 | 0.875 | 0.716 | 0.871 | 0.995 | 0.63 | 0.555 | 0.679 | 0.482 | 0.462 | 0.722 | 0.554 | 0.395 | 0.324 | 0.202 | 0.737 | 0.613 | 0.53 | 0.538 | 0.415 |
| NCI-H1734 | 0.514 | 0.428 |  | 0.445 | 0.5 | 0.332 | 0.204 | 0.202 | 0.16 | 0.147 | 0.921 | 0.363 | 0.195 | 0.105 | 0.0733 | 0.394 | 0.305 | 0.338 | 0.133 | 0.141 |
| NCI-H1755 | 0.52 | 0.478 | 0.36 | 0.442 | 0.495 | 0.395 | 0.339 | 0.263 | 0.253 | 0.247 | 1.01 | 0.633 | 0.253 | 0.185 | 0.138 | 0.348 | 0.321 | 0.236 | 0.224 | 0.223 |
| NCI-H1792 | 0.881 | 0.867 |  | 0.812 | 0.914 | 0.614 | 0.577 | 0.323 | 0.274 | 0.26 | 0.735 | 0.473 | 0.197 |  | 0.136 | 0.28 | 0.0706 | 0.0856 | 0.056 | 0.0352 |
| NCI-H1793 | 0.431 | 0.38 | 0.369 | 0.408 | 0.398 | 0.446 |  | 0.314 | 0.191 | 0.166 | 0.573 | 0.238 | 0.326 | 0.23 | 0.264 | 0.865 |  | 0.371 | 0.154 | 0.125 |
| NCI-H1915 | 0.345 | 0.335 |  | 0.291 | 0.322 | 0.379 | 0.323 | 0.237 | 0.175 | 0.109 | 0.829 |  | 0.449 | 0.369 | 0.26 | 0.486 | 0.231 | 0.219 | 0.15 | 0.0886 |
| NCI-H1944 | 0.207 | 0.202 | 0.18 | 0.2 | 0.269 | 0.319 | 0.242 | 0.223 | 0.203 | 0.204 | 1.08 |  | 0.763 | 0.562 | 0.359 | 0.626 | 0.311 | 0.26 | 0.164 | 0.185 |
| NCI-H1975 | 0.411 | 0.315 | 0.345 | 0.353 | 0.375 | 0.16 | 0.124 | 0.159 | 0.0883 | 0.0924 | 0.611 | 0.297 | 0.286 | 0.215 | 0.132 | 0.246 | 0.185 | 0.184 | 0.128 | 0.118 |
| NCI-H1993 | 0.569 | 0.516 | 0.543 | 0.581 | 0.575 | 0.776 | 0.685 | 0.526 | 0.395 | 0.339 | 1.04 | 0.645 | 0.54 | 0.44 | 0.435 | 0.631 | 0.428 | 0.539 | 0.332 | 0.267 |
| NCI-H2009 | 0.297 | 0.322 | 0.305 | 0.256 | 0.344 | 0.147 | 0.159 | 0.13 | 0.0987 | 0.0664 | 0.42 | 0.38 | 0.189 | 0.19 | 0.0825 | 0.895 | 0.389 | 0.222 | 0.156 | 0.112 |
| NCI-H2023 | 0.91 | 0.726 | 0.424 | 0.567 | 0.617 | 0.234 | 0.186 | 0.0972 | 0.0704 | 0.0509 | 0.715 | 0.598 | 0.257 | 0.159 | 0.0924 | 0.183 | 0.154 | 0.0933 | 0.0756 | 0.0692 |
| NCI-H2085 | 0.209 | 0.219 | 0.27 | 0.238 | 0.213 | 0.442 | 0.359 | 0.355 | 0.301 | 0.303 | 0.757 | 0.583 | 0.541 | 0.415 | 0.366 | 0.635 | 0.307 | 0.429 | 0.206 | 0.242 |
| NCI-H2087 | 1.23 | 0.82 |  | 0.8 | 1.11 | 0.208 | 0.2 | 0.0957 | 0.0793 | 0.0947 | 0.744 | 0.679 | 0.374 | 0.133 | 0.103 | 0.548 | 0.531 | 0.429 | 0.171 | 0.117 |
